# Experimental data taken from US11850238B2, “Use of a thienopyridone derivative in the treatment of adrenoleukodystrophy or adrenomyeloneuropathy” (POXEL, priority 2020, dated 2023).
# Tests used:
# [1] = test system: AMN human patient-derived primary lymphocytes; test: Hexacosanoic acid (VLCFA) level in AMN patient-derived lymphocytes, LC-MS; type: cell-based
# Procedure: In order to show the efficacy of PXL770 to lower very long chain fatty acids (VLCFA) in vitro, the study focuses on the level assessment of the hexacosanoic acid, which is the most prevalent VLCFA, in healthy control cells and in AMN human patient-derived primary lymphocytes. The cell lines were obtained from Coriell Cell Repositories. Lymphocytes were cultured in RPMI-1640 with 10% fetal bovine serum (FBS). The cultures were split in 1:5 ratio. Lymphocytes from healthy patients were used as control. All treatments were in complete media containing fetal bovine serum (FBS, 15%). All cultured cells were maintained at 37° C. in 5% CO2.
# VLCFA content was then measured as follows. Samples are adjusted to a final volume of 0.5-1 ml with LC-MS grade water and spiked with 10 ng of Lignoceric acid-d4 as an internal standard. The sample is acidified to pH 3-4 with dilute hydrochloric acid and extracted with isooctane-ethyl acetate (9:1) three times with equal volume. The extract is dried under nitrogen and the residue is reconstituted in methanol-water-ammonium acetate (75:25:10 mM).
# Total fatty acids: After preparing the samples with internal standard as described above for free fatty acids, aqueous sodium hydroxide is added to a final concentration of 1 M. The mixture is incubated at 37° C. in dark under nitrogen for 3 h. […]
# LC-MS analysis of fatty acids: The reconstituted fatty acid extracts are subjected to HPLC on Targa C8 column (2×10 mm) using methanol-aqueous ammonium acetate (10 mM) solvent mixture. […] The column eluent is directly introduced to mass analyzer (QTRAP5500) and monitored for fatty acids using published pseudo MRM method. […] Each fatty acid is quantitated against the added internal standard.
# First, the evolution of hexacosanoic acid in lymphocytes is monitored in healthy control cells and in AMN human patient-derived primary lymphocytes; and in a second time a treatment of PXL770 was assigned to AMN human-derived primary lymphocytes in culture at different concentrations (5 μM, 10 μM, 25 μM, 50 μM) for one week and the level of hexacosanoic acid was measured. […]
# [2] = test system: ALD-KO mouse-mixed glial cells; test: Hexacosanoic acid (VLCFA) level in ALD-KO mouse mixed glial cells; type: cell-based; settings: 25 μM, FIG. 3
# Procedure: The inventors carried out a study of the measurement of VLCFA accumulation in AMN mouse-mixed glial cells when they are not undergoing any treatment and when they are treated with PXL770 at different doses.
# C57BL6 mouse breeding pairs were purchased from Jackson Laboratory (Bar Harbor, ME) and maintained at the Henry Ford Health System (HFHS) animal facility. All animal procedures were approved by the HFHS Animal Review Committee and all animals received humane care in compliance with the HFHS experimental guidelines and the National Research Council's criteria for humane care (Guide for Care and Use of Laboratory Animals). Mouse with Abcd1 gene knocked-out were raised and used to extract mixed glial cells. Primary astrocyte-enriched cultures were prepared from the whole cortex of 1-day-old C57BL/6 mice. Briefly, the cortex was rapidly dissected in ice-cold calcium/magnesium-free HBSS at pH 7.4 as described previously. The tissue was minced, incubated in HBSS containing trypsin (2 mg/ml) for 20 min, and washed twice in plating medium containing 10% FBS and 10 μg/ml gentamicin and then disrupted by triturating through a Pasteur pipette, after which cells were seeded in 75-cm^2 culture flasks (Falcon, Franklin, NJ). […]
# Hexacosanoic acid level in six groups of mixed glial cells was measured. […]
# ABCD2 = test: Western blot of ABCD2 expression in ALD patient fibroblasts; type: cell-based, human; settings: especially at low concentration (5 μM), FIG. 6
# Procedure: The experiments described in Examples 4 and 6 were performed with metformin by the same lab and described by Singh et al. in Journal of Neurochemistry, 2016; 138, 86-100.
# ABCD1-KO mice = test: In vivo X-ALD mouse, 60 days: VLCFA (C26:0) in brain cortex and plasma; settings: male ABCD1-KO mice, 75 mg/kg oral gavage twice a day
# Procedure: Male ABCD1-KO mice (n=15) were treated with oral gavage of PXL770 (75 mg/kg) twice a day, every day for 60 days. Untreated ABCD1-KO mice (n=15) and wild-type (WT) mice (n=12) served as controls. Post-treatment mice were sacrificed and brain cortex and plasma were collected for VLCFA analysis. The analysis was performed according to the standardized protocols of the Lipidomics Core Facility and data are expressed as VLCFA μg/ml levels. Hexacosanoic acid (C26:0) was selected as representative for VLCFAs.
# A one-way ANOVA with Dunnett's multiple comparison test was performed to assess the effect of PXL770 on brain's VLCFAs (**** p<0.0001, *** p<0.001). A Kruskal-Wallis test with Dunn's multiple comparison test was performed to assess the effect of PXL770 on plasma's VLCFAs (**** p<0.0001, […]).
smiles,measurement,setting,value
"O=c1[nH]c2sc(Cl)c(-c3ccc4c(c3O)CCCC4)c2c([O-])c1-c1ccccc1.[K+] [PXL770, monohydrate potassium salt of 2-chloro-4-hydroxy-3-(5-hydroxytetralin-6-yl)-5-phenyl-7H-thieno[2,3-b]pyridin-6-one]",level of hexacosanoic acid,"[1]; AMN lymphocytes, all doses tested (5, 10, 25, 50 μM), one week, FIG. 1",strongly decreases
same,level of hexacosanoic acid compared to healthy controls,"[1]; AMN lymphocytes, doses of 5 and 50 μM, one week, FIG. 1",same level as that present in lymphocytes of healthy controls
same,"VLCFA content, normalization","[1]; AMN patient cells, 5 μM",normalization effect
same,accumulation of hexacosanoic acid,[2],decreases
same,expression of ABCD2 (Western blot),ABCD2,overexpression
same,VLCFA accumulation in the brain cortex,ABCD1-KO mice; FIG. 7,significantly reduces
same,VLCFA accumulation in the plasma,ABCD1-KO mice; FIG. 8,significantly reduces
